In patent US20250215029A1 (Recludix Pharma, Inc., priority 2022, published 2025):
pIC50: −log10 of the molar value.

Target: T1, pY641-STAT6 in PBMC (Homo sapiens, UniProt P42226)
T1 construct: Cryopreserved Peripheral Blood Mononuclear Cells (PBMC) are from AllCells; host or cells: cryopreserved PBMC
T1 sequence (P42226 1-847): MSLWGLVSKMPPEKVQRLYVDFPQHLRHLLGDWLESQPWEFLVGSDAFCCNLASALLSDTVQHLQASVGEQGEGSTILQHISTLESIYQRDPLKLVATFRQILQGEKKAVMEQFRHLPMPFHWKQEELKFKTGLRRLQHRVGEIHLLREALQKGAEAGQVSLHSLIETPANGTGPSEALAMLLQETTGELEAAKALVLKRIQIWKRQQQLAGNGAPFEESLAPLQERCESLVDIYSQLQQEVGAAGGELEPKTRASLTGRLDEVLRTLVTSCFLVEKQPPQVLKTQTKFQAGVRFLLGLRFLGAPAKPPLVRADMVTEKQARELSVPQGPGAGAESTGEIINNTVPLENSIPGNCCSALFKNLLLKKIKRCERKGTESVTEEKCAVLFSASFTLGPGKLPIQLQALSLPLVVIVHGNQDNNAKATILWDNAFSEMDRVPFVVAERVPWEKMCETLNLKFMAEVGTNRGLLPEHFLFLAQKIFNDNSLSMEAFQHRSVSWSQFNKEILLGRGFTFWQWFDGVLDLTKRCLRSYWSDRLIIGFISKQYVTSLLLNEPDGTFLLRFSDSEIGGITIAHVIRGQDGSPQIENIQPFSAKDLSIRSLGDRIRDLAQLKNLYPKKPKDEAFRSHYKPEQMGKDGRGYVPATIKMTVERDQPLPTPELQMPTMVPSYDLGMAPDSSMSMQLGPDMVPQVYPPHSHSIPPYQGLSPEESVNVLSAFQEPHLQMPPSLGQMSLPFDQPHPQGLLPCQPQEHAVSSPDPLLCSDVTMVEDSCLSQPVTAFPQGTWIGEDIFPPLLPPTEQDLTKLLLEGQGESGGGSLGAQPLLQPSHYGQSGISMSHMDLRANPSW
Assay: MSD-pSTAT-PBMC Assay (pSTAT6, IL-4 stimulated)
Assay type: cell-based
Settings: STAT6, PBMC, compound 3 hrs, then 1 ng/mL IL-4 for 10 min; Table 115
How it was run: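 Cells are preincubated with compound for 3 hrs, then stimulated for 10 min, IL-4 at 1 ng/mL driving STAT6 phosphorylation and IL-6 at 10 ng/mL driving STAT3. Phospho-STAT in lysates is quantified by MSD immunoassay, and IC50 is fitted after subtracting unstimulated wells.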

SMILES | pIC50
CCCOC(=O)[C@H](C)NP(=O)(Oc1ccccc1)[C@@H](F)c1ccc2sc(C(=O)N[C@H]3CCCC[C@H]4CC[C@@H](C(=O)N5C(=O)N(c6ccc(C(F)(F)F)nc6)C(=O)C56CC6)N4C3=O)cc2c1 (stereo partly drawn) [Compound 327, propyl (((R)-(2-(((3S,6S,10aS)-3-(5,7-dioxo-6-(6-(trifluoromethyl)pyridin-3-yl)-4,6-diazaspiro[2.4]heptane-4-carbonyl)-5-oxodecahydropyrrolo [1,2-a]azocin-6-yl)carbamoyl)benzo [b]thiophen-5-yl)fluoromethyl) (phenoxy)phosphoryl)-L-alaninate] | < 5.52
CCCOC(=O)[C@H](C)NP(=O)(Oc1ccccc1)C(F)c1ccc2sc(C(=O)N[C@H]3CCCC[C@H]4CCC[C@@H](C(=O)N5CC(C#N)[C@H](c6ccccc6)C5)N4C3=O)cc2c1 (relative stereo) [Compound 269, propyl (((2-(((4S,7S,11aS)-4-((rel-trans)-3-cyano-4-phenylpyrrolidine-1-carbonyl)-6-oxodecahydro-2H-pyrido[1,2-a]azocin-7-yl)carbamoyl)benzo [b]thiophen-5-yl)fluoromethyl) (phenoxy)phosphoryl)-L-alaninate] | > 7.00
CCCOC(=O)[C@H](C)NP(=O)(Oc1ccccc1)C(F)c1ccc2ccc(C(=O)N[C@H]3CCCC[C@H]4CC[C@@H](C(=O)N5CCC(c6ccn(C)c(=O)c6)C5)N4C3=O)cc2c1 (stereo partly drawn) [Compound 450, propyl ((fluoro(7-(((3S,6S,10aS)-3-(3-(1-methyl-2-oxo-1,2-dihydropyridin-4-yl)pyrrolidine-1-carbonyl)-5-oxodecahydropyrrolo [1,2-a]azocin-6-yl)carbamoyl)naphthalen-2-yl)methyl)(phenoxy)phosphoryl)-L-alaninate] | 6.00 to 7.00
CCCOC(=O)[C@H](C)NP(=O)(Oc1ccccc1)[C@@H](F)c1ccc2sc(C(=O)N[C@H]3CCC[C@H]4CC[C@@H](C(=O)N5C[C@H](c6cncc(OC)c6)[C@@H](C#N)C56CC6)N4C3=O)cc2c1 (single isomer, unassigned) [Compound 369] | 5.52 to 6.00
C[C@H](NP(=O)(Oc1ccccc1)[C@@H](F)c1ccc2sc(C(=O)N[C@H]3CCC[C@H]4CC[C@@H](C(=O)N5C[C@@H](c6cccnc6)CC56CC6)N4C3=O)cc2c1)C(=O)OCc1cccnn1 (stereo partly drawn) [Compound 366, pyridazin-3-ylmethyl (((R)-fluoro(2-(((3S,6S,9aS)-5-oxo-3-((R)-6-(pyridin-3-yl)-4-azaspiro[2.4]heptane-4-carbonyl)octahydro-1H-pyrrolo[1,2-a]azepin-6-yl)carbamoyl)benzo [b]thiophen-5-yl)methyl)(phenoxy)phosphoryl)-L-alaninate] | 6.00 to 7.00
CCCOC(=O)[C@H](C)NP(=O)(Oc1ccccc1)[C@@H](F)c1ccc2sc(C(=O)N[C@H]3CCCC[C@H]4CC[C@@H](C(=O)N5C(=O)N(c6cncc(C)c6)C(=O)C56CC6)N4C3=O)cc2c1 (stereo partly drawn) [Compound 303, propyl (((R)-fluoro(2-(((3S,6S,10aS)-3-(6-(5-methylpyridin-3-yl)-5,7-dioxo-4,6-diazaspiro [2.4]heptane-4-carbonyl)-5-oxodecahydropyrrolo [1,2-a]azocin-6-yl)carbamoyl)benzo [b]thiophen-5-yl)methyl)(phenoxy)phosphoryl)-L-alaninate] | 6.00 to 7.00
CCCOC(=O)[C@H](C)NP(=O)(Oc1ccccc1)[C@@H](F)c1ccc2sc(C(=O)N[C@H]3CCC[C@H]4CC[C@@H](C(=O)N5C[C@H](c6cncc(Cl)c6)[C@@H](C#N)C56CC6)N4C3=O)cc2c1 (single isomer, unassigned) [Compound 368] | < 5.52
CCCOC(=O)[C@H](C)NP(=O)(Oc1ccccc1)C(F)c1ccc2ccc(C(=O)N[C@H]3CCCC[C@H]4CC[C@@H](C(=O)N5CCC(c6cccnc6)C5)N4C3=O)cc2c1 (stereo partly drawn) [Compound 427, propyl ((fluoro(7-(((3S,6S,10aS)-5-oxo-3-(3-(pyridin-3-yl)pyrrolidine-1-carbonyl)decahydropyrrolo[1,2-a]azocin-6-yl)carbamoyl)naphthalen-2-yl)methyl)(phenoxy)phosphoryl)-L-alaninate] | > 7.00
C[C@H](NP(=O)(Oc1ccccc1)[C@@H](F)c1ccc2sc(C(=O)N[C@H]3CCCC[C@H]4CC[C@@H](C(=O)N5C[C@@H](c6cccnc6)CC56CC6)N4C3=O)cc2c1)C(=O)OCc1ccccc1 (stereo partly drawn) [Compound 472, benzyl (((R)-fluoro(2-(((3S,6S,10aS)-5-oxo-3-((R)-6-(pyridin-3-yl)-4-azaspiro[2.4]heptane-4-carbonyl)decahydropyrrolo[1,2-a]azocin-6-yl)carbamoyl)benzo [b]thiophen-5-yl)methyl)(phenoxy)phosphoryl)-L-alaninate] | > 7.00
CCCOC(=O)[C@H](C)NP(=O)(Oc1ccccc1)C(F)c1ccc2ccc(C(=O)N[C@H]3CCCC[C@H]4CC[C@@H](C(=O)N5CC(c6ccn(C)c(=O)c6)CC56CC6)N4C3=O)cc2c1 (stereo partly drawn) [Compound 440, propyl ((fluoro(7-(((3S,6S,10aS)-3-(6-(1-methyl-2-oxo-1,2-dihydropyridin-4-yl)-4-azaspiro[2.4]heptane-4-carbonyl)-5-oxodecahydropyrrolo [1,2-a]azocin-6-yl)carbamoyl)naphthalen-2-yl)methyl)(phenoxy)phosphoryl)-L-alaninate] | > 7.00
C[C@H](NP(=O)(Oc1ccccc1)[C@@H](F)c1ccc2sc(C(=O)N[C@H]3CCCC[C@H]4CC[C@@H](C(=O)N5C[C@@H](c6cccnc6)CC56CC6)N4C3=O)cc2c1)C(=O)OCC1CCOCC1 (stereo partly drawn) [Compound 360, (tetrahydro-2H-pyran-4-yl)methyl (((R)-fluoro(2-(((3S,6S,10aS)-5-oxo-3-((R)-6-(pyridin-3-yl)-4-azaspiro[2.4]heptane-4-carbonyl)decahydropyrrolo[1,2-a]azocin-6-yl)carbamoyl)benzo [b]thiophen-5-yl)methyl)(phenoxy)phosphoryl)-L-alaninate] | > 7.00
CCCOC(=O)[C@H](C)NP(=O)(Oc1ccccc1)C(F)c1ccc2ccc(C(=O)N[C@H]3CCCC[C@H]4CC[C@@H](C(=O)N5CCC(F)(c6ccn(C)c(=O)c6)C5)N4C3=O)cc2c1 (stereo partly drawn) [Compound 451, propyl ((fluoro(7-(((3S,6S,10aS)-3-(3-fluoro-3-(1-methyl-2-oxo-1,2-dihydropyridin-4-yl)pyrrolidine-1-carbonyl)-5-oxodecahydropyrrolo [1,2-a]azocin-6-yl)carbamoyl)naphthalen-2-yl)methyl)(phenoxy)phosphoryl)-L-alaninate] | 6.00 to 7.00
CCCOC(=O)[C@H](C)NP(=O)(Oc1ccccc1)[C@@H](F)c1ccc2sc(C(=O)N[C@H]3C[C@@H](C)C[C@H]4CC[C@@H](C(=O)N5C[C@@H](c6cccnc6)CC56CC6)N4C3=O)cc2c1 (stereo partly drawn) [Compound 353, propyl (((R)-fluoro(2-(((3S,6S,8R,9aR)-8-methyl-5-oxo-3-((R)-6-(pyridin-3-yl)-4-azaspiro[2.4]heptane-4-carbonyl)octahydro-1H-pyrrolo[1,2-a]azepin-6-yl)carbamoyl)benzo [b]thiophen-5-yl)methyl)(phenoxy)phosphoryl)-L-alaninate] | > 7.00
COCCOC(=O)[C@H](COC)NP(=O)(Oc1ccccc1)[C@@H](F)c1ccc2sc(C(=O)N[C@H]3CCCC[C@H]4CC[C@@H](C(=O)N5C[C@H](c6ccccc6)[C@@H](C#N)C56CC6)N4C3=O)cc2c1 (stereo partly drawn) [Compound 376, 2-methoxyethyl N-(((R)-(2-(((3S,6S,10aS)-3-((6S,7R)-7-cyano-6-phenyl-4-azaspiro[2.4]heptane-4-carbonyl)-5-oxodecahydropyrrolo [1,2-a]azocin-6-yl)carbamoyl)benzo [b]thiophen-5-yl)fluoromethyl) (phenoxy)phosphoryl)-O-methyl-L-serinate] | > 7.00
COCCOC(=O)[C@H](C)NP(=O)(Oc1ccccc1)[C@@H](F)c1ccc2sc(C(=O)N[C@H]3CCC[C@H]4CC[C@@H](C(=O)N5C[C@@H](c6cccnc6)CC56CC6)N4C3=O)cc2c1 (stereo partly drawn) [Compound 480, 2-methoxyethyl (((R)-fluoro(2-(((3S,6S,9aS)-5-oxo-3-((R)-6-(pyridin-3-yl)-4-azaspiro[2.4]heptane-4-carbonyl)octahydro-1H-pyrrolo[1,2-a]azepin-6-yl)carbamoyl)benzo [b]thiophen-5-yl)methyl)(phenoxy)phosphoryl)-L-alaninate] | > 7.00

Same assay, conditions: read-out: STAT6; PBMC, compound 3 hrs, then 1 ng/mL IL-4 for 10 min; Table 115

SMILES | pIC50
CCCOC(=O)[C@H](C)NP(=O)(Oc1ccccc1)[C@@H](F)c1ccc2sc(C(=O)N[C@H]3CCC[C@H]4CC[C@@H](C(=O)N5C[C@H](c6cccnc6)[C@@H](C#N)C56CC6)N4C3=O)cc2c1 (single isomer, unassigned) [Compound 363] | > 7.00
